Data from patent US9809532B2, “Uses of histone acetyltransferase activators” (THE TRUSTEES OF COLUMBIA UNIVERSITY IN THE CITY OF NEW YORK, priority 2011, dated 2017).
Where two headings read alike, the source gives them in different places.

What was measured:
[1] = Pharmacokinetics and BBB penetration after i.p. and i.v. administration (LC-MS/MS); type: in vivo, BALB/c mice; settings: 20 mg/kg; for Kp: brain/plasma
Experimental: After i.p. and i.v. administration at 20 mg/kg to BALB/c mice, plasma and brain concentrations were determined by LC-MS/MS.

[2] = system: histone lysines H3K4, H3K9, H3K14, H4K5, H4K8, H4K12, H4K16, and H2B; assay: Histone acetylation in mouse hippocampus (WB analysis); type: in vivo; settings: for acetylation of histone lysines (H3, H4, H2B) in hippocampus: 20 mg/Kg i.p., 30 min, FIG. 22
Experimental: The compound was i.p. administered at 20 mg/Kg, mice were sacrificed 30 min later, and hippocampi were removed and quickly frozen for WB analysis.

[3] = system: mice; assay: Sensory threshold assessment; type: in vivo; settings: vs vehicle, 5 mg/kg (FIG. 19)
Experimental: To evaluate contextual fear learning, freezing was measured for 5 min (consecutively) in the chamber in which the mice was trained 24 hr after training. To evaluate cued fear learning, following contextual testing, the mice were placed in a novel context (triangular cage with smooth flat floor) for 2 min (pre-CS test), after which they were exposed to the CS for 3 min (CS test), and freezing was measured. Sensory perception of the shock was determined through threshold assessment. A sequence of single foot shocks was delivered to animals placed on the same electrified grid used for fear conditioning. Initially, a […] shock was delivered for 1 sec, and the animal behavior was evaluated for flinching, jumping, and vocalization. At 30 sec intervals the shock intensity was increased by […] and then returned to 0 mV in […] increments at 30 sec intervals. Threshold to vocalization, flinching, and then jumping was quantified for each animal by averaging the shock intensity at which each animal manifests a behavioral response to the foot shock.

[4] = biological target: T1, HDAC7 (Homo sapiens, UniProt Q8WUI4); assay: HDAC7 activity assay (fluorescence)
T1 sequence (Q8WUI4 1-952): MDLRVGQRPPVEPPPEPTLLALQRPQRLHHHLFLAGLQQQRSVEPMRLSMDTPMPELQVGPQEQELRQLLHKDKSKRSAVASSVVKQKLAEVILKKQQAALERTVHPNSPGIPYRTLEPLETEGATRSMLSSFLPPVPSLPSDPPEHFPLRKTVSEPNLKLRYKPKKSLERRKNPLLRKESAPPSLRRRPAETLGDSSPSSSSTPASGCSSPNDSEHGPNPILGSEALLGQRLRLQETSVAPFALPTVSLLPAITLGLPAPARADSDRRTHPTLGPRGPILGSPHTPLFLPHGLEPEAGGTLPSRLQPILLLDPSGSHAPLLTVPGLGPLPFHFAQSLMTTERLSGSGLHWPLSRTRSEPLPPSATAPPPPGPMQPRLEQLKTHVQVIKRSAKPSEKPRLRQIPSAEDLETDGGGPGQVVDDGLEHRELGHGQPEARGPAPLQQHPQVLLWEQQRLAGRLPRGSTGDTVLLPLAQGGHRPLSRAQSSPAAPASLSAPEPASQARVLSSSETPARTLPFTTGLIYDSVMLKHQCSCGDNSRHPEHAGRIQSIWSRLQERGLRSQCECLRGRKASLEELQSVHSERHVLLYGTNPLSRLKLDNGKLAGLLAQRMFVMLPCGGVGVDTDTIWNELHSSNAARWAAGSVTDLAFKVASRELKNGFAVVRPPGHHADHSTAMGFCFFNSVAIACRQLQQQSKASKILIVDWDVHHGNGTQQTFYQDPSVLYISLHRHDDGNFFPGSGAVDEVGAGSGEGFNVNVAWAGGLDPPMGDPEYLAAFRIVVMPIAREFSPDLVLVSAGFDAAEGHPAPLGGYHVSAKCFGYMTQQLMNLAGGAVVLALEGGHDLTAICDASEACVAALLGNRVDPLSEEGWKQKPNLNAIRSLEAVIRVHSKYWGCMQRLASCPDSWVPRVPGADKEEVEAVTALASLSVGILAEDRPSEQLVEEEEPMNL

CCOc1cccc(OCCN(C)C)c1C(=O)Nc1ccc(Cl)c(C(F)(F)F)c1 [Compound 1]
Kp ([1]; BALB/c, mouse, ip, IP, read-out: AUC0-t ratio brain/plasma): 8.2 | Kp ([1]; BALB/c, mouse, ip, IP, read-out: AUC0-∞ ratio brain/plasma): 8.1 | Kp ([1]; BALB/c, mouse, ip, IP, read-out: Cmax ratio brain/plasma): 5.8 | Kp ([1]; BALB/c, mouse, iv, IV, read-out: AUC0-t ratio brain/plasma): 10.8 | Kp ([1]; BALB/c, mouse, iv, IV, read-out: AUC0-∞ ratio brain/plasma): 11.2 | Kp ([1]; BALB/c, mouse, iv, IV, read-out: Cmax ratio brain/plasma): 13.1 | Tmax ([1]; BALB/c, mouse, intraperitoneal, brain, read-out: Tmax in the brain (converted)): 15 min | half-life ([1]; BALB/c, mouse, ip, i.p., brain and plasma, read-out: elimination half-lives in the brain and plasma): ~40 min | Cmax ([1]; BALB/c, mouse, IP, brain): 4880 ng/g | MRT ([1]; BALB/c, mouse, IP, brain): 61.8 min | Tmax ([1]; BALB/c, mouse, IP, brain, read-out: Tmax): 15 min | half-life ([1]; BALB/c, mouse, IP, brain, read-out: t½ (converted)): 37.8 min | AUC(0-inf) ([1]; BALB/c, mouse, IP, plasma): 813 ng·h/mL | Cmax ([1]; BALB/c, mouse, IP, plasma): 843 ng/mL | MRT ([1]; BALB/c, mouse, IP, plasma): 51 min | AUC0-t ([1]; BALB/c, mouse, IP, plasma, read-out: AUC0-t): 806 ng·h/mL | Tmax ([1]; BALB/c, mouse, IP, plasma, read-out: Tmax): 15 min | half-life ([1]; BALB/c, mouse, IP, plasma, read-out: t½ (converted)): 36 min | Cmax ([1]; BALB/c, mouse, IV, brain): 27900 ng/g | MRT ([1]; BALB/c, mouse, IV, brain): 44.4 min | Tmax ([1]; BALB/c, mouse, IV, brain, read-out: Tmax): 7.5 min | half-life ([1]; BALB/c, mouse, IV, brain, read-out: t½ (converted)): 37.8 min | AUC(0-inf) ([1]; BALB/c, mouse, IV, plasma): 2020 ng·h/mL | Cmax ([1]; BALB/c, mouse, IV, plasma): 2130 ng/mL | MRT ([1]; BALB/c, mouse, IV, plasma): 50.4 min | AUC0-t ([1]; BALB/c, mouse, IV, plasma, read-out: AUC0-t): 1970 ng·h/mL | Tmax ([1]; BALB/c, mouse, IV, plasma, read-out: Tmax): 7.5 min | half-life ([1]; BALB/c, mouse, IV, plasma, read-out: t½ (converted)): 42 min | AUC0-t ([1]; IP, brain): 6493 ng·h/g | AUC0-∞ ([1]; IP, brain): 6564 ng·h/g | F ([1]; IP, brain): 29.2% | F ([1]; IP, plasma): 41.0% | AUC0-t ([1]; IV, brain): 22222 ng·h/g | AUC0-∞ ([1]; IV, brain): 22581 ng·h/g | amount in the brain compared with plasma ([1]; i.p. and i.v.): higher than that in the plasma | acetylation of histone lysines (H3, H4, H2B) in hippocampus [2]: increased acetylation of histone lysines | acetylation of histone lysines (H3, H4, H2B) in hippocampus ([2]; listed as YF2): increased specific acetylation of H3, H4, and H2B | crossing of the BBB ([2]; i.p., western blot, FIG. 21): crosses the BBB | histone 3 acetylation levels of the hippocampus ([2]; i.p., western blot, FIG. 21): increases histone 3 acetylation levels | sensory threshold [3]: no difference was observed | IC50 [4]: > 200 µM
